Test results as given in PMC4401541, “Structure- and Ligand-Based Virtual Screening Identifies New Scaffolds for Inhibitors of the Oncoprotein MDM2” (PLoS ONE, 2015).
Converted amounts (≈) assume the structure as drawn. Values belong to the compound of their own block, whether it stands above or below them.

Tests used:
MDM2-N [1] = molecular target: T1, MDM2-N (Homo sapiens, UniProt Q00987); assay: Competitive capillary electrophoresis (CE) assay, compound vs fluorescently labelled p53 peptide (p53-F); type: binding; settings: for inhibition at 300 µM: read-out: CE % inhibition at 300 μM; for activity in the assays: CE and FP screening assays
Description: Capillary electrophoresis (CE) is an analytical technique used to study the interaction between biomacromolecules. In CE, electrophoresis is carried out in the interior of a narrow capillary. The technique separates ions based on their electrophoretic mobility with the use of applied voltage. The electrophoretic mobility is dependent on the charge of the molecule, the viscosity and the molecular size. CE is performed using a high voltage to produce a high resolution profile with a short migration time to separate numerous analytes. […] The assay provides a high sensitivity through the use of a Laser Induced Fluorescence (LIF) detector to enable the detection of weak binding fragments. This enables the interaction assay to be performed with a low labelled probe concentration and allows compounds to be screened at low concentrations. A competitive CE assay was used to detect competition between compounds and fluorescently labelled p53 peptide (p53-F) in MDM2-N/p53 binding site. The injection sample contained carboxyfluorescein (internal standard (10pM)) and p53-F (500pM) in TAPS/Tris (1mM) pH 8.0, DTT (1mM). […] After injection of the sample, a voltage of 10kV was applied and separation was carried out for 6.5min.
TR is the migration time of p53-F peak.
TL is the migration time of p53-F peak in the presence of MDM2-N + compound.

MDM2-N [2] = molecular target: T1, MDM2-N; assay: Fluorescence polarization (FP) competition assay with p53-F; type: binding; settings: read-out: FP % inhibition at 700 μM; compound 700 μM; MDM2-N 500 nM; p53-F 2 nM
Description: Fluorescence polarization experiments were performed with a LJL Biosystems Analyst multi-plate reader in 50mM HEPES pH 7.5, 100mM NaCl, 1mM DTT. Fluorescein labelled p53 peptide (p53-F) was synthesised by Biomatiks. […] The competition experiments were carried out by mixing MDM2-N (500nM), p53-F (2nM) and test compound in black NBS plate. […] The inhibition (%) was calculated using the equation below. %Inhibition=100(AF-AL)/(AF-AU) Where: AF is the anisotropy of fully bound p53-F.
AU is the anisotropy of unbound p53-F.
AL is the anisotropy of p53-F in the presence of MDM2-N + compound.

[3] = Solubility of the fragments in assay buffer; type: physicochemical; settings: aqueous buffer, read-out: Estimated solubility limit
Source text: Supplement pone.0121424.s006.docx, table 5 | column: Estimated solubility limit

MDM2 = settings: read-out: literature IC50 value for racemic Nutlin-3; cited from earlier work

Structure (SMILES): O=C(NCc1ccccc1)N(c1ccccc1)c1ccccc1 [Compound 19]
inhibition at 300 µM (MDM2-N [1]): 42% | inhibition at 700 µM (MDM2-N [2]): 18%

Structure (SMILES): CCn1c(=O)c2c(nc(-n3nc(C)cc3C)n2Cc2ccc(F)cc2)n(C)c1=O [Compound 25]
activity in the assays (MDM2-N [1]): inactive

activity in the assays (MDM2-N [1]): inactive
Structure (SMILES): CC1CCN(c2nc3c(c(=O)n(C)c(=O)n3C)n2CC(=O)c2ccccc2)CC1 [Compound 26]

Structure (SMILES): O=C1N[C@@](O)(c2ccccc2)c2ccccc21 [Compound 39]
inhibition at 300 µM (MDM2-N [1]): 40% | inhibition at 700 µM (MDM2-N [2]): 13%

Structure (SMILES): O=C1Cc2ccccc2N1 [Compound 40]
solubility [3]: > 2000 µM | inhibition at 300 µM (MDM2-N [1]): 28% | inhibition at 700 µM (MDM2-N [2]): 8%

Structure (SMILES): Oc1cccc(Nc2ccccc2)c1 [Compound 41]
solubility [3]: 250 to 500 µM (≈ 46.3 to 92.6 µg/mL) | inhibition at 300 µM (MDM2-N [1]): 66% | inhibition at 700 µM (MDM2-N [2]): 31%

Structure (SMILES): Oc1ccc(Nc2ccccc2)cc1 [Compound 42]
solubility [3]: 250 to 500 µM (≈ 46.3 to 92.6 µg/mL) | inhibition at 300 µM (MDM2-N [1]): 52% | inhibition at 700 µM (MDM2-N [2]): 60%

Structure (SMILES): c1ccc(Nc2ccccc2)cc1 [Compound 43]
solubility [3]: 250 to 500 µM (≈ 42.3 to 84.6 µg/mL) | inhibition at 300 µM (MDM2-N [1]): 36% | inhibition at 700 µM (MDM2-N [2]): 33%

Structure (SMILES): Nc1ccc(Nc2ccccc2)cc1 [Compound 44]
solubility [3]: 62.5 to 125 µM (≈ 11.5 to 23 µg/mL) | inhibition at 300 µM (MDM2-N [1]): 30% | inhibition at 700 µM (MDM2-N [2]): 8%

solubility [3]: > 1000 µM
Structure (SMILES): O=C(O)c1ccccc1Nc1ccccc1 [Compound 45]
